Where a name gives a salt, the structure may show the parent alone. Read-outs that look alike come from different tables or passages of the source.
Experiments:
[1] = tested on: HTT mRNA; assay: Splicing RT-qPCR assay, HTT canonical (CJ) and alternative (AJ) junction mRNA; assay type: cell-based; details: Homo sapiens; for EC50: AC50 = 50% response in AJ mRNA increase
Method in brief: (§1)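 A673 or K562 cells were exposed for 24 h at 37 °C to an 11-point 3-fold dilution series (top 10 uM final, DMSO ≤0.25%). Lysates were analysed by one-step RT-qPCR for canonical (CJ) and alternative (AJ) junctions. Values were normalized to GAPDH, GUSB or PPIA and to DMSO (ΔΔCt), then converted to percentage response.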

[2] = tested on: MYB mRNA; assay: Splicing RT-qPCR assay, MYB canonical (CJ) and alternative (AJ) junction mRNA; assay type: cell-based; details: Homo sapiens; for EC50: AC50 = 50% response in AJ mRNA increase
Method in brief: as §1

[3] = tested on: SMN2 mRNA; assay: Splicing RT-qPCR gene panel, SMN2 canonical junction (CJ) mRNA; assay type: cell-based; details: Homo sapiens; Table 8; larger gene panel, decrease in CJ mRNA levels
Method in brief: as §1

[4] = tested on: Target C mRNA; assay: Splicing RT-qPCR gene panel, Target C canonical junction (CJ) mRNA; assay type: cell-based; details: Homo sapiens; Table 8; larger gene panel, decrease in CJ mRNA levels
Method in brief: as §1

[5] = tested on: HiBiT-tagged MYB protein; assay: HiBiT protein abundance assay, MYB (K562 HiBiT knock-in cells); assay type: cell-based, human; details: 24 hours treatment
Description: (§2) Compounds described herein were used to screen for effects on quantitative protein abundance using a HiBit assay system (Promega). Quantitative protein abundance was determined by measuring the protein levels of HiBit-tagged protein targets expressed in cell culture via luminescence using the Nano-Glo HiBiT Lytic Detection System, which uses a split complementation assay format to reconstitute NanoBiT enzyme to generate a luminescent signal. A protein abundance assay was developed such that endogenous protein targets could be modified with the HiBiT peptide tag and their abundance could be assessed after compound treatment. Briefly, K562 cell lines containing a HiBiT-modification were treated with various compounds described herein (e.g., compounds of Formulas (I), or (II)). After treatment for 24 hours, the protein abundance of a specific target was determined by measuring luminescence.
(§3) Cells were maintained in IMDM with 10% FBS. Before the assay, cells were diluted with […] growth media (IMDM+[…] media) and were seeded in a 384-well plate at a density of 10000 cells/well (for each cell line listed in Table 6). Each compound was prepared as a 10-point 3-fold serial dilution in DMSO with the top dose at a final concentration of […] in the well. Unmodified K562 cells were added at the previously specified density with DMSO to serve as an assay baseline and positive control (PC) and DMSO only with the respective modified cell lines was added to the negative control (NC) columns. Final DMSO concentration was kept at or below 0.25%. Treated cell plates were placed in an incubator at 37° C. with […] for 24 hours. After 24 hours, 25 μL of Complete HiflitLytic reagent was added to each well at room temperature (e.g. one plate requiring 10 mL Lytic Buffer, 100 μL LgBiT Protein, 200 μL Lytic Substrate), shaken for 5 minutes at 600 RPM, then left to sit for 10 minutes for signal to stabilize before reading on a Spark Cyto plate reader (Tecan) with a 500 ms measurement time.
(§4) To determine compound effects on protein abundance of each target in Table 6, the percent response for each respective cell line was calculated at each compound concentration as follows:
(§5) For the normalized response at each concentration, a four-parameter logistical regression was fit to the data and the response was interpolated at the 50% value to determine a concentration for protein abundance at 50% (IC50) the untreated control.

[6] = tested on: HiBiT-tagged HTT protein; assay: HiBiT protein abundance assay, HTT (K562 HiBiT knock-in cells); assay type: cell-based, human; details: 24 hours treatment
Description: as §2, §3, §4, §5

[7] = tested on: K562 (human chronic myelogenous leukemia) cells; assay: Cell viability, Cell Titer Glo 2.0 assay, K562 cells; assay type: cell-based; details: 72 hours
Description: Compounds described herein were screened for toxicity in K562 (human chronic myelogenous leukemia) and SH-SY5Y (human neuroblastoma) cells using a Cell Titer Glo 2.0 assay.
Cells were plated at 500 cells/well (K562 cells) in 45 μL of IMDM supplemented with 10% FBS in a 384-well opaque plate. Wells containing only medium were used as a blank control. Test compounds (e.g., compounds of Formula (I), (III), (IV), (V), or (VI)) were first serially diluted in DMSO then diluted 1:100 with IMDM+10% FBS. The final concentration of DMSO was 0.1% in each well. The cells were incubated for 72 hours at 37° C. and 5% CO2 before assaying with Cell Titer Glo 2.0 reagent.

[8] = tested on: Target C; assay: HiBiT protein abundance assay, Target C (K562 HiBiT knock-in cells); assay type: cell-based, human; details: 24 hours treatment
Description: • Promega Nano-Glo HiBiT Lytic Detection System (cat #N3030) • Corning 384-well TC-treated microplates (cat #3570) • Synthego Engineered Cells Knock-In Clones
as §3, §4, §5

[9] = Table 7, RT-qPCR, A673 or K562 cells, 24 hours treatment
[10] = Table 7, IC50 = 50% response in CJ mRNA decrease, RT-qPCR, A673 or K562 cells, 24 hours treatment, read-out: HTT CJ
[11] = Table 8, larger gene panel, decrease in CJ mRNA levels, read-out: HTT CJ IC50
[12] = Table 7, IC50 = 50% response in CJ mRNA decrease, RT-qPCR, A673 or K562 cells, 24 hours treatment, read-out: MYB CJ
[13] = Table 8, larger gene panel, decrease in CJ mRNA levels, read-out: MYB CJ IC50

Cc1nc2c(F)cc(-n3cc4cc(C5CCNCC5)sc4n3)cc2o1 [Compound 157]
EC50 [1, 9]: 0.1 to 1 µM | IC50 [1, 10]: 0.1 to 1 µM | IC50 [1, 11]: 0.1 to 1 µM | EC50 [2, 9]: 0.1 to 1 µM | IC50 [2, 12]: 1 to 10 µM | IC50 [2, 13]: 0.1 to 1 µM | IC50 [3]: < 0.1 µM | IC50 [4]: 0.1 to 1 µM | IC50 [5]: 0.1 to 1 µM | IC50 [6]: < 0.1 µM | IC50 [7]: 0.1 to 1 µM | IC50 [8]: < 0.1 µM

Cc1cn2cc(-n3cc4cc(C5CCNCC5)sc4n3)ncc2n1 [Compound 158]
EC50 [1, 9]: 0.1 to 1 µM | IC50 [1, 10]: 0.1 to 1 µM | IC50 [1, 11]: 0.1 to 1 µM | EC50 [2, 9]: 0.1 to 1 µM | IC50 [2, 12]: 0.1 to 1 µM | IC50 [2, 13]: 0.1 to 1 µM | IC50 [3]: 0.1 to 1 µM | IC50 [4]: 0.1 to 1 µM | IC50 [5]: 0.1 to 1 µM | IC50 [6]: 0.1 to 1 µM | IC50 [7]: 0.1 to 1 µM | IC50 [8]: 0.1 to 1 µM

Cn1cc2cc(-c3cc4cn([C@@H]5CCNC5)nc4s3)cc(F)c2n1 [Compound 160, (R)-5-(7-fluoro-2-methyl-2H-indazol-5-yl)-2-(pyrrolidin-3-yl)-2H-thieno[2,3-c]pyrazole hydrochloride]
EC50 [1, 9]: 1 to 10 µM | IC50 [1, 10]: 1 to 10 µM | IC50 [1, 11]: 1 to 10 µM | EC50 [2, 9]: 1 to 10 µM | IC50 [2, 12]: 1 to 10 µM | IC50 [2, 13]: 1 to 10 µM | IC50 [3]: 1 to 10 µM | IC50 [4]: > 10 µM | IC50 [5]: 1 to 10 µM | IC50 [6]: 1 to 10 µM | IC50 [7]: 1 to 10 µM | IC50 [8]: > 10 µM

Cn1cc2cc(-c3cc4cn(C5CCOCC5)nc4s3)cc(F)c2n1 [Compound 161, 7-fluoro-2-methyl-5-[2-(oxan-4-yl)thieno[2,3-c]pyrazol-5-yl]indazole]
EC50 [1, 9]: > 10 µM | IC50 [1, 10]: > 10 µM | IC50 [1, 11]: > 10 µM | EC50 [2, 9]: > 10 µM | IC50 [2, 12]: > 10 µM | IC50 [2, 13]: > 10 µM | IC50 [3]: > 10 µM | IC50 [4]: > 10 µM | IC50 [5]: > 10 µM | IC50 [6]: > 10 µM | IC50 [7]: > 10 µM | IC50 [8]: > 10 µM

Cc1cn2nc(-c3cc4cn(C5CCNCC5)nc4s3)cc(C)c2n1 [Compound 162, 4-(5-{2,8-dimethylimidazo[1,2-b]pyridazin-6-yl}thieno[2,3-c]pyrazol-2-yl)piperidine]
EC50 [1, 9]: 0.1 to 1 µM | IC50 [1, 10]: 0.1 to 1 µM | IC50 [1, 11]: 0.1 to 1 µM | EC50 [2, 9]: 0.1 to 1 µM | IC50 [2, 12]: 0.1 to 1 µM | IC50 [2, 13]: 0.1 to 1 µM | IC50 [3]: < 0.1 µM | IC50 [4]: 0.1 to 1 µM | IC50 [5]: 0.1 to 1 µM | IC50 [6]: < 0.1 µM | IC50 [7]: 1 to 10 µM | IC50 [8]: 0.1 to 1 µM

Cc1cn2nc(-n3cc4cc(C5CCNCC5)sc4n3)nc2c(C)n1 [Compound 163, 4-(2-{6,8-dimethyl-[1,2,4]triazolo [1,5-a]pyrazin-2-yl}thieno[2,3-c]pyrazol-5-yl)piperidine]
EC50 [1, 9]: 1 to 10 µM | IC50 [1, 10]: 1 to 10 µM | IC50 [1, 11]: 1 to 10 µM | EC50 [2, 9]: 1 to 10 µM | IC50 [2, 12]: 1 to 10 µM | IC50 [2, 13]: 1 to 10 µM | IC50 [3]: 1 to 10 µM | IC50 [4]: 1 to 10 µM | IC50 [5]: 1 to 10 µM | IC50 [6]: 1 to 10 µM | IC50 [7]: 1 to 10 µM | IC50 [8]: 1 to 10 µM

Cc1cn2nc(-n3cc4cc(C5CCNCC5)sc4n3)cc2c(C)n1 [Compound 164]
EC50 [1, 9]: 1 to 10 µM | IC50 [1, 10]: 1 to 10 µM | IC50 [1, 11]: 1 to 10 µM | EC50 [2, 9]: 1 to 10 µM | IC50 [2, 12]: 1 to 10 µM | IC50 [2, 13]: 1 to 10 µM | IC50 [3]: 1 to 10 µM | IC50 [4]: 1 to 10 µM | IC50 [5]: 1 to 10 µM | IC50 [6]: 1 to 10 µM | IC50 [7]: 1 to 10 µM | IC50 [8]: 1 to 10 µM

Cc1cn2cc(-n3cc4cc(C5CCNCC5)sc4n3)cc(Cl)c2n1 [Compound 165]
EC50 [1, 9]: < 0.1 µM | IC50 [1, 10]: < 0.1 µM | IC50 [1, 11]: < 0.1 µM | EC50 [2, 9]: 1 to 10 µM | IC50 [2, 12]: 0.1 to 1 µM | IC50 [2, 13]: 1 to 10 µM | IC50 [3]: < 0.1 µM | IC50 [4]: 0.1 to 1 µM | IC50 [5]: 0.1 to 1 µM | IC50 [6]: < 0.1 µM | IC50 [7]: 0.1 to 1 µM | IC50 [8]: 0.1 to 1 µM

Cc1cn2cc(-n3cc4sc(C5CCNCC5)cc4n3)cc(F)c2n1 [Compound 166, 4-(2-{8-fluoro-2-methylimidazo[1,2-a]pyridin-6-yl}thieno[3,2-c]pyrazol-5-yl)piperidine]
EC50 [1, 9]: 0.1 to 1 µM | IC50 [1, 10]: 0.1 to 1 µM | IC50 [1, 11]: 0.1 to 1 µM | EC50 [2, 9]: 1 to 10 µM | IC50 [2, 12]: 1 to 10 µM | IC50 [2, 13]: 1 to 10 µM | IC50 [3]: 0.1 to 1 µM | IC50 [4]: 1 to 10 µM | IC50 [5]: 0.1 to 1 µM | IC50 [6]: 0.1 to 1 µM | IC50 [7]: 1 to 10 µM | IC50 [8]: 0.1 to 1 µM

Cc1nc2c(F)cc(-n3cc4sc(C5CCNCC5)cc4n3)cc2o1 [Compound 167]
EC50 [1, 9]: 0.1 to 1 µM | IC50 [1, 10]: 0.1 to 1 µM | IC50 [1, 11]: 0.1 to 1 µM | EC50 [2, 9]: 1 to 10 µM | IC50 [2, 12]: 1 to 10 µM | IC50 [2, 13]: 1 to 10 µM | IC50 [3]: 0.1 to 1 µM | IC50 [4]: 1 to 10 µM | IC50 [5]: 0.1 to 1 µM | IC50 [6]: 0.1 to 1 µM | IC50 [7]: 1 to 10 µM | IC50 [8]: 0.1 to 1 µM

Cc1nc2c(F)cc(-n3cc4sc(C5CCNCC5)cc4n3)cc2s1 [Compound 168]
EC50 [1, 9]: 1 to 10 µM | IC50 [1, 10]: 1 to 10 µM | IC50 [1, 11]: 1 to 10 µM | EC50 [2, 9]: 1 to 10 µM | IC50 [2, 12]: > 10 µM | IC50 [2, 13]: 1 to 10 µM | IC50 [3]: 0.1 to 1 µM | IC50 [4]: > 10 µM | IC50 [5]: 1 to 10 µM | IC50 [6]: 1 to 10 µM | IC50 [7]: 1 to 10 µM | IC50 [8]: 1 to 10 µM
